Experimental data published in ChEMBL document CHEMBL1152712, “5-Hydroxyindole-type alkaloids, as Candida albicans isocitrate lyase inhibitors, from the tropical sponge Hyrtios sp” (Bioorg Med Chem Lett, 2009).
Converted amounts (≈) assume the structure as drawn.

Tests used:
[1] = system: Candida albicans; assay: Antimicrobial activity against Candida albicans ATCC 10231; format: functional
[2] = molecular target: Isocitrate lyase (Candida albicans, UniProt Q9P8Q7); assay: Inhibition of Candida albicans isocitrate lyase
Isocitrate lyase, sequence (Q9P8Q7 whole entry): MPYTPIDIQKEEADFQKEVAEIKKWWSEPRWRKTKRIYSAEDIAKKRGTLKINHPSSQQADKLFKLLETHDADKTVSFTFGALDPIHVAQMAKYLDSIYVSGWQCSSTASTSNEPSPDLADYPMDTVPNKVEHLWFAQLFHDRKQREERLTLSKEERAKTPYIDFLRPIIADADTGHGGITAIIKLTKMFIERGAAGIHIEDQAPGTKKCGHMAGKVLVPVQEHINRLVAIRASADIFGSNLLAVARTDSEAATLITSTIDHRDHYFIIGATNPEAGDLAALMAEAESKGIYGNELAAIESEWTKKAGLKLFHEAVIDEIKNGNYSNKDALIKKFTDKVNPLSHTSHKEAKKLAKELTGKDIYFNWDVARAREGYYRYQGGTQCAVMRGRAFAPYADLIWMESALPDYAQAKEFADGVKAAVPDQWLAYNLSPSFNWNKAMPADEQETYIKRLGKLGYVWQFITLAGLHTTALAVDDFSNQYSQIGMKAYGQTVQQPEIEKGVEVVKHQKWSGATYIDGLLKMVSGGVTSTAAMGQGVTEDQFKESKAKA

MIC [1] [µM] | IC50 [2] [µM] | Compound
> 1050 | 800 | COC(=O)c1c[nH]c2ccc(O)cc12
> 989 | > 989 | O=C1NCCc2c1[nH]c1ccc(O)cc21
> 1020 | 247 | O=Cc1c[nH]c2ccc(O)cc12
> 869 | 380 | O=C(O)C1=NCCc2c1[nH]c1ccc(O)cc21
> 624 | 89 | O=C(C(=O)c1c[nH]c2ccc(O)cc12)c1c[nH]c2ccc(O)cc12 [HYRTIOSIN B]
> 1050 | 318 | O=C(CO)c1c[nH]c2ccc(O)cc12 [HYRTIOSIN A]
1.7 (≈ 1.57 µg/mL) | – | C[C@@H]1[C@H](O)[C@@H](C)/C=C/C=C/C=C/C=C/C=C/C=C/C=C/[C@H](O[C@@H]2O[C@H](C)[C@@H](O)[C@H](N)[C@@H]2O)C[C@@H]2O[C@](O)(C[C@@H](O)C[C@@H](O)[C@H](O)CC[C@@H](O)C[C@@H](O)CC(=O)O[C@H]1C)C[C@H](O)[C@H]2C(=O)O [AMPHOTERICIN B]

Compound | MIC [1] [µM] | IC50 [2] [µM]
O=C(O)CC[N+](=O)[O-] | > 1690 | –
NCCc1c[nH]c2ccc(O)cc12 [SEROTONIN] | > 1130 | 301
